The text below walks through data of patent US9546164B2 (GENENTECH, INC., priority 2013, dated 2017).

Where a name gives a salt, the structure may show the parent alone.

One assay deals with hNav1.7 (Homo sapiens (Human), UniProt Q15858). The assay can be described thus: Tritiated sulfonamide competitive binding to membranes from cells expressing hNav1.7 and the β1 subunit.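 Note: Filter-bound radioactivity counted by liquid scintillation, nonspecific binding defined with excess unlabelled ligand, IC50 fitted to percent inhibition of specific binding.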
Sequence of hNav1.7 (Q15858 other isoform, or with tags, fused parts or gaps): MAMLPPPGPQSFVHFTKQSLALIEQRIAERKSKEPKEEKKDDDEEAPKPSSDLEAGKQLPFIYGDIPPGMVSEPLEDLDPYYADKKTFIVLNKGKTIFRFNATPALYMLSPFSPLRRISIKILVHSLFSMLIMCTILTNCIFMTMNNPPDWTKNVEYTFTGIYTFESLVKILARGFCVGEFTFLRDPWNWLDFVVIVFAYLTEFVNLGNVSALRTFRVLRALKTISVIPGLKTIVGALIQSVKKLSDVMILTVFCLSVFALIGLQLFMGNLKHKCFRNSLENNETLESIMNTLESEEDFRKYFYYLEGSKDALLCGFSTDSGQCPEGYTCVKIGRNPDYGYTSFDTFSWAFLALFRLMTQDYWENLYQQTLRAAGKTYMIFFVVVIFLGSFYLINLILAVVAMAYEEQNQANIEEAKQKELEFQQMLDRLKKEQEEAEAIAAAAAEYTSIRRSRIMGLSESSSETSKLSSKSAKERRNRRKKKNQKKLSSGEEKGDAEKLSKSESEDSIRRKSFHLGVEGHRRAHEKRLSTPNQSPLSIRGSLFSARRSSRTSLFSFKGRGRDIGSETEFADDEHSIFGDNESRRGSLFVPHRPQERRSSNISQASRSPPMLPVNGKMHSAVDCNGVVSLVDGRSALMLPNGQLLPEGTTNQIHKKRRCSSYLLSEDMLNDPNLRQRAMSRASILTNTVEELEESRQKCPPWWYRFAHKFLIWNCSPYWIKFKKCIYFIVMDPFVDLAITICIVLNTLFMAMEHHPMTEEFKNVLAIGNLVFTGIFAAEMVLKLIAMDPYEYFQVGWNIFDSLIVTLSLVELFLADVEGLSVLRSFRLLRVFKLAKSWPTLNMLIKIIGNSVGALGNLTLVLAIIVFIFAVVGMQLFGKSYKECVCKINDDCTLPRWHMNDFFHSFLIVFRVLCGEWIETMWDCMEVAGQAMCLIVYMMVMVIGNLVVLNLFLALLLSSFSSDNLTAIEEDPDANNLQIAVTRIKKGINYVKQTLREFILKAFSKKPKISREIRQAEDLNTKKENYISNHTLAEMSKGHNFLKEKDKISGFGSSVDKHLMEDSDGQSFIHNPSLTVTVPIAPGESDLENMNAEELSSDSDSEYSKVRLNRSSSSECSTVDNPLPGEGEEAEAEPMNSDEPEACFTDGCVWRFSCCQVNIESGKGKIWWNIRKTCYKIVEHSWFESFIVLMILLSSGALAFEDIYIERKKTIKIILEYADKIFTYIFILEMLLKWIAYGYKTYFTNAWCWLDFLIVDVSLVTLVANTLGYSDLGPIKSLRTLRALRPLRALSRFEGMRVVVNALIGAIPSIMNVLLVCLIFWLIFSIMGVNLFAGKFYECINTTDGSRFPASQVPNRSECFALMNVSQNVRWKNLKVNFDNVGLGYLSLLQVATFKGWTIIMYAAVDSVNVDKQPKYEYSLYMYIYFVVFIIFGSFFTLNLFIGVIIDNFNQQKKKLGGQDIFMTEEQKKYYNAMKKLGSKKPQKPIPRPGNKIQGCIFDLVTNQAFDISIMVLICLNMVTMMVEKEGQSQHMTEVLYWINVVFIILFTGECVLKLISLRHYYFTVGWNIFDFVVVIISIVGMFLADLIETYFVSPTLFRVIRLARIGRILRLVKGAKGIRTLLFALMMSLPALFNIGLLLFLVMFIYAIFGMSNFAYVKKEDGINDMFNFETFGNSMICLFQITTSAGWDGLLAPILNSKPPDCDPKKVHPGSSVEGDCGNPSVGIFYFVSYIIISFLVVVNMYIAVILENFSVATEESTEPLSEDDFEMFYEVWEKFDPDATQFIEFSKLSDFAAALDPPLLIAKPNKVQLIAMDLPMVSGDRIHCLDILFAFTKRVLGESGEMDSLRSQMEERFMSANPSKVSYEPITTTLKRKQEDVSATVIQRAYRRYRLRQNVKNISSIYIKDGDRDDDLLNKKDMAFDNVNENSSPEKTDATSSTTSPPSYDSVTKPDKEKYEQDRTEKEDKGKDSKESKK
Sequence of hNav1.7 (Q07699 19-218 partner): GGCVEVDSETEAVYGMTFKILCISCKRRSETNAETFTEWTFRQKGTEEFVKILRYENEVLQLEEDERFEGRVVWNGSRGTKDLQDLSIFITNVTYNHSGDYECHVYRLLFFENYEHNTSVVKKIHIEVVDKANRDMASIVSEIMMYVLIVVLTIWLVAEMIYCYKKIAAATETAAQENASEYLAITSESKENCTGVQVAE
Conditions: not given
`CS(=O)(=O)NC(=O)c1cc(C2CC2)c(CN2CCC(Oc3cc(C(F)(F)F)c(Cl)cn3)CC2)cc1F` [Example 521, 4-((4-((5-chloro-4-(trifluoromethyl)pyridin-2-yl)oxy)piperidin-1-yl)methyl)-5-cyclopropyl-2-fluoro-N-(methylsulfonyl)benzamide, trifluoroacetic acid salt] displayed an IC50 of 7.9 nM. As to `O=C(NS(=O)(=O)C1CC1)c1cc(C2CC2)c(CN2CCC(Oc3ccc(F)cc3)CC2)cc1F` [Example 508, 5-cyclopropyl-N-(cyclopropylsulfonyl)-2-fluoro-4-((4-(4-fluorophenoxy)piperidin-1-yl)methyl)benzamide, trifluoroacetic acid salt], the IC50 is 44 nM.

`C[C@H](c1cc(Cl)cc(Cl)c1)N1CCN(Cc2cc(F)c(C(=O)NS(=O)(=O)C3CC3)cc2C2CC2)C[C@@H]1C` [Example 566, 5-cyclopropyl-N-(cyclopropylsulfonyl)-4-(((S)-4-((R)-1-(3,5-dichlorophenyl)ethyl)-3-methylpiperazin-1-yl)methyl)-2-fluorobenzamide] came in with an IC50 of 2.7 nM.

Still in this assay, the particulars now being: read-out: Ligand Binding Assay; 100 pM [3H]compound, membranes with hNav1.7 and β1 subunit, 18 h, room temperature.
Regarding `N#Cc1cc(C(=O)NS(=O)(=O)C2CC2)c(F)cc1OCC1CCN(Cc2cc(Cl)cc(OC(F)(F)F)c2)CC1` [Example 409, 4-((1-(3-chloro-5-(trifluoromethoxy)benzyl)piperidin-4-yl)methoxy)-5-cyano-N-(cyclopropylsulfonyl)-2-fluorobenzamide, trifluoroacetic acid salt], the IC50 worked out at 54 nM. The same measure, in the same setting: with `CCC(c1cc(Cl)cc(Cl)c1)N1CC(COc2cc(F)c(C(=O)NS(C)(=O)=O)cc2C2CC2)C1` (stereo not drawn) [Example 158, 5-Cyclopropyl-4-((1-(1-(3,5-dichlorophenyl)propyl)azetidin-3-yl)methoxy)-2-fluoro-N-(methylsulfonyl)benzamide] the figure was 12.3 nM; with `C[C@H](c1cccc(F)c1)N1CCC(C)(COc2cc(F)c(C(=O)NS(C)(=O)=O)cc2C2CC2)CC1` (single isomer, unassigned) [Example 250], 43 nM; with `CC1(COc2cc(F)c(C(=O)NS(=O)(=O)C3CC3)cc2C2CC2)CCN(c2cc(C(F)(F)F)c(Cl)cn2)CC1` [Example 557, 4-((1-(5-chloro-4-(trifluoromethyl)pyridin-2-yl)-4-methylpiperidin-4-yl)methoxy)-5-cyclopropyl-N-(cyclopropylsulfonyl)-2-fluorobenzamide], 2.7 nM.

Consider `C[C@H]1CC[C@@H](Oc2cc(F)c(C(=O)NS(C)(=O)=O)cc2C2CC2)CN1Cc1ccc(F)cc1Cl` [Example 324, 4-(((3R,6S)-1-(2-chloro-4-fluorobenzyl)-6-methylpiperidin-3-yl)oxy)-5-cyclopropyl-2-fluoro-N-(methylsulfonyl)benzamide], for which the IC50 was found to be 2.7 nM. On the same count and under the same terms, the figure for `Cc1nc(CN2CCC(COc3cc(F)c(C(=O)NS(=O)(=O)C4CC4)cc3C3CC3)CC2)cs1` [Example 354, 5-cyclopropyl-N-(cyclopropylsulfonyl)-2-fluoro-4-((1-((2-methylthiazol-4-yl)methyl)piperidin-4-yl)methoxy)benzamide, trifluoroacetic acid salt] is 2670 nM. In the case of `Cc1cc(F)ccc1S(=O)(=O)N1CCC(COc2cc(F)c(C(=O)NS(=O)(=O)C3CC3)cc2C2CC2)CC1` [Example 387, 5-cyclopropyl-N-(cyclopropylsulfonyl)-2-fluoro-4-((1-((4-fluoro-2-methylphenyl)sulfonyl)piperidin-4-yl)methoxy)benzamide], the IC50 was 13.3 nM. On the same count and under the same terms, with `CC(C)(C)c1ccc(CN2CCC[C@@H](Oc3cc(F)c(C(=O)NS(C)(=O)=O)cc3C3CC3)C2)cc1` [Example 425, (R)-4-((1-(4-(tert-butyl)benzyl)piperidin-3-yl)oxy)-5-cyclopropyl-2-fluoro-N-(methylsulfonyl)benzamide, trifluoroacetic acid salt] the figure was 2.9 nM; with `CC1(COc2cc(F)c(C(=O)NS(C)(=O)=O)cc2C2CC2)CCN(c2cc(C(F)(F)F)c(Cl)cn2)CC1` [Example 556, 4-((1-(5-chloro-4-(trifluoromethyl)pyridin-2-yl)-4-methylpiperidin-4-yl)methoxy)-5-cyclopropyl-2-fluoro-N-(methylsulfonyl)benzamide], 2.1 nM; with `CS(=O)(=O)NC(=O)c1cc(C2CC2)c(OCC2CCN(c3cc(C(F)(F)F)c(Cl)cn3)CC2)cc1F` [Example 554, 4-((1-(5-chloro-4-(trifluoromethyl)pyridin-2-yl)piperidin-4-yl)methoxy)-5-cyclopropyl-2-fluoro-N-(methylsulfonyl)benzamide], 3.2 nM. As for `O=C(NS(=O)(=O)C1CC1)c1cc(C2CC2)c(OCC2CCN(S(=O)(=O)c3cc(Cl)c(Br)cc3F)CC2)cc1F` [Example 367, 4-((1-((4-bromo-5-chloro-2-fluorophenyl)sulfonyl)piperidin-4-yl)methoxy)-5-cyclopropyl-N-(cyclopropylsulfonyl)-2-fluorobenzamide], the IC50 was determined as 8.3 nM. Regarding `CS(=O)(=O)NC(=O)c1cc(C2CC2)c(O[C@@H]2CCCN(Cc3ccc(S(C)(=O)=O)cc3Cl)C2)cc1F` [Example 441, (R)-4-((1-(2-chloro-4-(methylsulfonyl)benzyl)piperidin-3-yl)oxy)-5-cyclopropyl-2-fluoro-N-(methylsulfonyl)benzamide, trifluoroacetic acid salt], the IC50 came to 138 nM. Same read-out and setting: with `C[C@@H](c1ccc(Cl)c(Cl)c1)N1CCC(C)(COc2cc(F)c(C(=O)NS(C)(=O)=O)cc2C2CC2)CC1` (single isomer, unassigned) [Example 219] the figure was 8.3 nM. As to `CS(=O)(=O)NC(=O)c1cc(C2CC2)c(OCC2CCN(S(=O)(=O)c3cc(Cl)c(Br)cc3F)CC2)cc1F` [Example 366, 4-((1-((4-bromo-5-chloro-2-fluorophenyl)sulfonyl)piperidin-4-yl)methoxy)-5-cyclopropyl-2-fluoro-N-(methylsulfonyl)benzamide], the IC50 was 9.1 nM. Take `CS(=O)(=O)NC(=O)c1cc(C2CC2)c(CN2CCO[C@H](Cc3ccc(Cl)c(Cl)c3)C2)cc1F` [Example 458, (R)-5-cyclopropyl-4-((2-(3,4-dichlorobenzyl)morpholino)methyl)-2-fluoro-N-(methylsulfonyl)benzamide]: the IC50 is 4.4 nM. Turning to `CC1(COc2cc(F)c(C(=O)NS(=O)(=O)C3CC3)cc2C2CC2)CN(C(c2ccccc2)c2cc(Cl)cc(Cl)c2)C1` (stereo not drawn) [Example 421, 5-cyclopropyl-N-(cyclopropylsulfonyl)-4-((1-((3,5-dichlorophenyl)(phenyl)methyl)-3-methylazetidin-3-yl)methoxy)-2-fluorobenzamide, trifluoroacetic acid salt], the IC50 is 2.5 nM. On the same count and under the same terms, with `CC(C)c1nc(CN2CCC(COc3cc(F)c(C(=O)NS(=O)(=O)C4CC4)cc3C3CC3)CC2)cs1` [Example 355, 5-cyclopropyl-N-(cyclopropylsulfonyl)-2-fluoro-4-((1-((2-isopropylthiazol-4-yl)methyl)piperidin-4-yl)methoxy)benzamide trifluoroacetic acid salt] the figure was 119 nM. The same measure, in the same setting: with `CS(=O)(=O)NC(=O)c1cc(C2CC2)c(OCC2CCN(Cc3ccc(Br)c(Cl)c3)CC2)cc1F` [Example 587, 4-((1-(4-bromo-3-chlorobenzyl)piperidin-4-yl)methoxy)-5-cyclopropyl-2-fluoro-N-(methylsulfonyl)benzamide] the figure was 5.1 nM; with `CC1(COc2cc(F)c(C(=O)NS(C)(=O)=O)cc2C2CC2)CCN(C(=O)c2cc(Cl)ccc2Cl)CC1` [Example 578, 5-cyclopropyl-4-((1-(2,5-dichlorobenzoyl)-4-methylpiperidin-4-yl)methoxy)-2-fluoro-N-(methylsulfonyl)benzamide], 180 nM. Same read-out and setting: with `CS(=O)(=O)NC(=O)c1cc(C2CC2)c(OCC2CCN(Cc3ccc(Cl)c(C(F)(F)F)c3)CC2)cc1F` [Example 229, 4-((1-(4-Chloro-3-(trifluoromethyl)benzyl)piperidin-4-yl)methoxy)-5-cyclopropyl-2-fluoro-N-(methylsulfonyl)benzamide] the figure was 7.3 nM. On to `CC1(COc2cc(F)c(C(=O)NS(C)(=O)=O)cc2C2CC2)CN(C(c2ccccc2)c2ccccc2)C1` [Example 68, 4-((1-benzhydryl-3-methylazetidin-3-yl)methoxy)-5-cyclopropyl-2-fluoro-N-(methylsulfonyl)benzamide], for which the IC50 amounted to 6.4 nM. Take `CS(=O)(=O)NC(=O)c1cc(C2CC2)c(O[C@@H]2CCCN([C@H](c3ccc(F)cc3Cl)C(F)(F)F)C2)cc1F` (single isomer, unassigned) [Example 297]: the IC50 worked out at 10.8 nM. As to `CS(=O)(=O)NC(=O)c1cc(C2CC2)c(OCC2CCN(Cc3cc(Cl)cc(Cl)c3F)CC2)cc1F` [Example 242, 5-Cyclopropyl-4-((1-(3,5-dichloro-2-fluorobenzyl)piperidin-4-yl)methoxy)-2-fluoro-N-(methylsulfonyl)benzamide], the IC50 was found to be 3 nM. The same measure, in the same setting: with `CCS(=O)(=O)NC(=O)c1cc(C2CC2)c(OCC2CCN(Cc3cc(Cl)cc(Cl)c3)CC2)cc1F` [Example 184, 5-Cyclopropyl-4-((1-(3,5-dichlorobenzyl)piperidin-4-yl)methoxy)-N-(ethylsulfonyl)-2-fluorobenzamide] the figure was 5.1 nM. Take `CCS(=O)(=O)NC(=O)c1cc(C2CC2)c(OC[C@@H]2CC[C@@H](C)N([C@@H](C)c3cc(Cl)cc(Cl)c3)C2)cc1F` [Example 344, trifluoroacetic acid salt]: the IC50 was found to be 6.9 nM. Regarding `CS(=O)(=O)NC(=O)c1cc(C2CC2)c(OCC2CN(c3cc(C(F)(F)F)c(Cl)cn3)C2)cc1F` [Example 542, 4-((1-(5-chloro-4-(trifluoromethyl)pyridin-2-yl)azetidin-3-yl)methoxy)-5-cyclopropyl-2-fluoro-N-(methylsulfonyl)benzamide], the IC50 was found to be 27 nM. With `C[C@@H](c1ccc(F)cc1Cl)N1CCC(COc2cc(F)c(C(=O)NS(C)(=O)=O)cc2C2CC2)CC1` [Example 243], the IC50 worked out at 11 nM.
